# In publication PMC11876601 (Molecular Systems Biology, 2025):
# “And” between values parts separate entries of the source, which are not always exact repeats. Equal values may be shown once. Read-outs that look alike come from different tables or passages of the source.
# How the values were obtained:
# AsPC-1 cells = experiment: Drug combination viability screen (ATPlite, 72 h); format: cell-based, human; design: key to AUC: AUC of dose-response curve; AUC∆ = AUChypothetical − AUCexperimental; Curve top / Curve bottom / Curve effect size: scale not given here; conditions: for Library drug only (ratio): cell viability (library drug/vehicle); for Library drug + GEM low (ratio) / Library drug + GEM high (ratio): cell viability vs vehicle; for Bliss_Library drug + GEM low (ratio) / Bliss_Library drug + GEM high (ratio): hypothetical viability, Bliss model; for EC50: Homo sapiens;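 on AUC: area under vehicle-normalized viability curve scaled 0 to 100 percent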;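 on Curve bottom: fraction of vehicle control viability from four-parameter log-logistic fit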
# Description: Cell viability was assessed by measuring ATP levels to indicate metabolic activity.
# Afterward, small amounts were transferred to 384-well intermediate plates (Greiner Bio-One GmbH, Germany). […] For drug combination screening, 1000 to 5000 cells were seeded into 384-well plates (CulturPlate™, Perkin Elmer, MA, USA) using a Multidrop™ Combi Reagent Dispenser (Thermo Scientific, MA, USA) in 50 µl medium per well 24 h prior to drug treatment (seeding densities see Appendix Table S1). […] The final DMSO concentration in each well was 0.2%. […] Eight wells per plate without library drug served as negative controls, and sixteen wells per plate containing 5 µM Staurosporine served as positive controls. Control plates not containing any drug were used to correct for incubation effects, and data quality was assessed by calculation of Z-prime of positive and negative controls according to1 Z-prime=1−3SDpos+3SDneg/[…] where SD is the standard deviation. […] Dose–response curves from the experimental and hypothetical data were compared, and shifts in AUC were used to describe combination effects (AUC∆ = AUChypothetical − AUCexperimental). […] Only combinations with R^2 > 0.8 in both conditions were considered in the synergy analysis.
# Suit2-07 cells = experiment: Cell proliferation assay, GEM + ATR inhibitor (Incucyte confluence, 72 h); format: cell-based, human; conditions: for EC50: Homo sapiens, experiment GEM (GEM alone, in the series of the ATRi named in column Drug); for Response: R1, in % (unit assumed);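 on all read-outs here: Suit2-07 cells grown in 96-well plates at 37 °C, 5% CO2, raw 72 h confluence taken without normalizing to starting confluence, each experiment done in triplicate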
# Description: Cells were seeded at 5000 cells/well into 96-well flat bottom plates (Eppendorf) and allowed to attach overnight. […] Cells were incubated for 72 h at 37 °C and 5% CO2. Cell confluence readouts at 72 h were either normalized to their initial confluence using the Incucyte software (AsPC-1) or used without prior normalization (all others). […] Each experiment was performed in triplicates, the data was plotted as mean ± standard deviation (s.d.).
# [1] = AsPC-1, GEM high_Bliss (hypothetical data)
# [2] = AsPC-1, GEM low_Bliss (hypothetical data)
# [3] = AsPC-1, library drug 123.46 nM + GEM 10 nM
# [4] = AsPC-1, library drug 123.46 nM + GEM 30 nM
# [5] = AsPC-1, library drug 370.37 nM + GEM 10 nM
# [6] = AsPC-1, library drug 370.37 nM + GEM 30 nM
# [7] = AsPC-1, library drug 1111.11 nM + GEM 10 nM
# [8] = AsPC-1, library drug 1111.11 nM + GEM 30 nM
# [9] = AsPC-1, library drug 3333.33 nM + GEM 10 nM
# [10] = AsPC-1, library drug 3333.33 nM + GEM 30 nM
# [11] = AsPC-1, library drug 10000 nM + GEM 10 nM
# [12] = AsPC-1, library drug 10000 nM + GEM 30 nM
# [13] = ASPC1, read-out: pEC50 (converted)
structure (smiles),measurement,setting,value
CCN1CCN(Cc2ccc(Nc3ncc(F)c(-c4cc(F)c5nc(C)n(C(C)C)c5c4)n3)nc2)CC1 [Abemaciclib],AUC,"AsPC-1 cells; AsPC-1, GEM high",87.77%
same,Curve bottom,"AsPC-1 cells; AsPC-1, GEM high",0.63
same,Curve effect size,"AsPC-1 cells; AsPC-1, GEM high",0.23
same,Curve slope,"AsPC-1 cells; AsPC-1, GEM high",0.52
same,Curve top,"AsPC-1 cells; AsPC-1, GEM high",0.85
same,AUC,AsPC-1 cells; [1],82.66%
same,Curve bottom,AsPC-1 cells; [1],-0.27
same,Curve effect size,AsPC-1 cells; [1],0.57
same,Curve slope,AsPC-1 cells; [1],0.36
same,Curve top,AsPC-1 cells; [1],0.8
same,AUC,"AsPC-1 cells; AsPC-1, GEM low",89.92%
same,Curve bottom,"AsPC-1 cells; AsPC-1, GEM low",0.62
same,Curve effect size,"AsPC-1 cells; AsPC-1, GEM low",0.28
same,Curve slope,"AsPC-1 cells; AsPC-1, GEM low",1.21
same,Curve top,"AsPC-1 cells; AsPC-1, GEM low",0.86
same,AUC,AsPC-1 cells; [2],82.59%
same,Curve bottom,AsPC-1 cells; [2],-0.23
same,Curve effect size,AsPC-1 cells; [2],0.57
same,Curve slope,AsPC-1 cells; [2],0.36
same,Curve top,AsPC-1 cells; [2],0.87
same,Library drug only (ratio),"AsPC-1 cells; AsPC-1, library drug 123.46 nM",0.76
same,Library drug only (ratio),"AsPC-1 cells; AsPC-1, library drug 370.37 nM",0.72
same,Library drug only (ratio),"AsPC-1 cells; AsPC-1, library drug 1111.11 nM",0.63
same,Library drug only (ratio),"AsPC-1 cells; AsPC-1, library drug 3333.33 nM",0.64
same,Library drug only (ratio),"AsPC-1 cells; AsPC-1, library drug 10000 nM",0.33
same,Library drug + GEM low (ratio),AsPC-1 cells; [3],0.80
same,Library drug + GEM high (ratio),AsPC-1 cells; [4],0.73
same,Library drug + GEM low (ratio),AsPC-1 cells; [5],0.68
same,Library drug + GEM high (ratio),AsPC-1 cells; [6],0.65
same,Library drug + GEM low (ratio),AsPC-1 cells; [7],0.63
same,Library drug + GEM high (ratio),AsPC-1 cells; [8],0.65
same,Library drug + GEM low (ratio),AsPC-1 cells; [9],0.67
same,Library drug + GEM high (ratio),AsPC-1 cells; [10],0.67
same,Library drug + GEM low (ratio),AsPC-1 cells; [11],0.59
same,Library drug + GEM high (ratio),AsPC-1 cells; [12],0.64
same,Bliss_Library drug + GEM low (ratio),AsPC-1 cells; [3],0.69
same,Bliss_Library drug + GEM high (ratio),AsPC-1 cells; [4],0.63
same,Bliss_Library drug + GEM low (ratio),AsPC-1 cells; [5],0.65
same,Bliss_Library drug + GEM high (ratio),AsPC-1 cells; [6],0.60
same,Bliss_Library drug + GEM low (ratio),AsPC-1 cells; [7],0.57
same,Bliss_Library drug + GEM high (ratio),AsPC-1 cells; [8],0.52
same,Bliss_Library drug + GEM low (ratio),AsPC-1 cells; [9],0.58
same,Bliss_Library drug + GEM high (ratio),AsPC-1 cells; [10],0.53
same,Bliss_Library drug + GEM low (ratio),AsPC-1 cells; [11],0.30
same,Bliss_Library drug + GEM high (ratio),AsPC-1 cells; [12],0.27
same,Library drug only (raw),"AsPC-1 cells; AsPC-1, luminescence signal, library drug 123.46 nM",1429160
same,Library drug + GEM low (raw),"AsPC-1 cells; AsPC-1, luminescence signal, library drug 123.46 nM + GEM 10 nM",1506080
same,Library drug + GEM high (raw),"AsPC-1 cells; AsPC-1, luminescence signal, library drug 123.46 nM + GEM 30 nM",1369120
same,Library drug only (raw),"AsPC-1 cells; AsPC-1, luminescence signal, library drug 370.37 nM",1356440
same,Library drug + GEM low (raw),"AsPC-1 cells; AsPC-1, luminescence signal, library drug 370.37 nM + GEM 10 nM",1276520
same,Library drug + GEM high (raw),"AsPC-1 cells; AsPC-1, luminescence signal, library drug 370.37 nM + GEM 30 nM",1223760
same,Library drug only (raw),"AsPC-1 cells; AsPC-1, luminescence signal, library drug 1111.11 nM",1177560
same,Library drug + GEM low (raw),"AsPC-1 cells; AsPC-1, luminescence signal, library drug 1111.11 nM + GEM 10 nM",1187000
same,Library drug + GEM high (raw),"AsPC-1 cells; AsPC-1, luminescence signal, library drug 1111.11 nM + GEM 30 nM",1214720
same,Library drug only (raw),"AsPC-1 cells; AsPC-1, luminescence signal, library drug 3333.33 nM",1196040
same,Library drug + GEM low (raw),"AsPC-1 cells; AsPC-1, luminescence signal, library drug 3333.33 nM + GEM 10 nM",1253360
same,Library drug + GEM high (raw),"AsPC-1 cells; AsPC-1, luminescence signal, library drug 3333.33 nM + GEM 30 nM",1251960
same,Library drug only (raw),"AsPC-1 cells; AsPC-1, luminescence signal, library drug 10000 nM",618520
same,Library drug + GEM low (raw),"AsPC-1 cells; AsPC-1, luminescence signal, library drug 10000 nM + GEM 10 nM",1109040
same,Library drug + GEM high (raw),"AsPC-1 cells; AsPC-1, luminescence signal, library drug 10000 nM + GEM 30 nM",1201080
same,AUC,"AsPC-1 cells; AsPC-1, no GEM (single drug)",82.59%
same,Curve bottom,"AsPC-1 cells; AsPC-1, no GEM (single drug)",-0.27
same,Curve effect size,"AsPC-1 cells; AsPC-1, no GEM (single drug)",0.57
same,Curve slope,"AsPC-1 cells; AsPC-1, no GEM (single drug)",0.36
same,Curve top,"AsPC-1 cells; AsPC-1, no GEM (single drug)",0.97
same,EC50,"AsPC-1 cells; ASPC1, read-out: EC50",16500 nM
same,EC50,AsPC-1 cells; [13],16600 nM
"Nc1ccn([C@@H]2O[C@H](CO)[C@@H](O)C2(F)F)c(=O)n1 [GEM, Gemcitabine]",Reponse,"AsPC-1 cells; AsPC-1, R1, 13.72 nM",1567840
same,Reponse,"AsPC-1 cells; AsPC-1, R1, 41.15 nM",1226120
same,Reponse,"AsPC-1 cells; AsPC-1, R1, 123.46 nM",1025760
same,Reponse,"AsPC-1 cells; AsPC-1, R1, 370.37 nM",921880
same,Reponse,"AsPC-1 cells; AsPC-1, R1, 1111.11 nM",872680
same,Reponse,"AsPC-1 cells; AsPC-1, R1, 3333.33 nM",849760
same,Reponse,"AsPC-1 cells; AsPC-1, R1, 10000 nM",784080
same,Reponse,"AsPC-1 cells; AsPC-1, R2, 13.72 nM",1654800
same,Reponse,"AsPC-1 cells; AsPC-1, R2, 41.15 nM",1220360
same,Reponse,"AsPC-1 cells; AsPC-1, R2, 123.46 nM",984000
same,Reponse,"AsPC-1 cells; AsPC-1, R2, 370.37 nM",972200
same,Reponse,"AsPC-1 cells; AsPC-1, R2, 1111.11 nM",963400
same,Reponse,"AsPC-1 cells; AsPC-1, R2, 10000 nM",773560
same,AUC,"AsPC-1 cells; AsPC-1, GEM curve fit",70.34
same,Curve bottom,"AsPC-1 cells; AsPC-1, GEM curve fit",0.46
same,Curve effect size,"AsPC-1 cells; AsPC-1, GEM curve fit",0.55
same,Curve slope,"AsPC-1 cells; AsPC-1, GEM curve fit",1.15
same,Curve top,"AsPC-1 cells; AsPC-1, GEM curve fit",1.04
same,GEM low only (raw),"AsPC-1 cells; AsPC-1, luminescence signal, plate mean, GEM 10 nM",1700020
same,GEM high only (raw),"AsPC-1 cells; AsPC-1, luminescence signal, plate mean, GEM 30 nM",1564215
same,EC50,"AsPC-1 cells; ASPC1, read-out: EC50,GEM",≥ 10 nM
same,EC50,"AsPC-1 cells; ASPC1, read-out: EC50",27.1 nM
same,EC50,AsPC-1 cells; [13],26.9 nM
same,EC50,"Suit2-07 cells; 72 h, Suit2-07, -log10 of EC50 [M], read-out: pEC50 (converted)",8.32e-09 M
same,EC50,"Suit2-07 cells; 72 h, Suit2-07, mean (one replicate), read-out: EC50 mean",8.26e-09 M
same,EC50,"Suit2-07 cells; 72 h, Suit2-07, replicate R1, read-out: EC50",8.26e-09 M
same,EC50,"Suit2-07 cells; Suit2-07, -log10 of EC50 [M], read-out: pEC50 (converted)",1.05e-08 M
same,Response,"Suit2-07 cells; Suit2-07, GEM 1 nM, ATRi 0 nM (GEM)",97.46
same,Response,"Suit2-07 cells; Suit2-07, GEM 3 nM, ATRi 0 nM (GEM)",93.41
same,Response,"Suit2-07 cells; Suit2-07, GEM 10 nM, ATRi 0 nM (GEM)",45.15
same,Response,"Suit2-07 cells; Suit2-07, GEM 30 nM, ATRi 0 nM (GEM)",20.11
same,Response,"Suit2-07 cells; Suit2-07, GEM 3000 nM, ATRi 0 nM (GEM)",10.86
same,Response,"Suit2-07 cells; Suit2-07, experiment GEM, GEM 1 nM, ATRi 0 nM",98.60 and 97.96 and 97.60
same,Response,"Suit2-07 cells; Suit2-07, experiment GEM, GEM 3 nM, ATRi 0 nM",96.04 and 96.69 and 98.44
same,Response,"Suit2-07 cells; Suit2-07, experiment GEM, GEM 10 nM, ATRi 0 nM",49.03 and 57.12 and 55.81
same,Response,"Suit2-07 cells; Suit2-07, experiment GEM, GEM 30 nM, ATRi 0 nM",23.93 and 25.24 and 25.44
same,Response,"Suit2-07 cells; Suit2-07, experiment GEM, GEM 100 nM, ATRi 0 nM",15.01
same,Response,"Suit2-07 cells; Suit2-07, experiment GEM, GEM 300 nM, ATRi 0 nM",14.46
same,Response,"Suit2-07 cells; Suit2-07, experiment GEM, GEM 1000 nM, ATRi 0 nM",10.89
same,Response,"Suit2-07 cells; Suit2-07, experiment GEM, GEM 3000 nM, ATRi 0 nM",10.34
